Measured values published in US20100249138A1, “MPZP: A SMALL MOLECULE CORTICOTROPIN-RELEASING FACTOR TYPE 1 RECEPTOR (CRF1) ANTOGONIST” (priority 2007, published 2010).
Entries after “also recorded” stand apart in the source; their conditions may differ.

Tests used:
[1] = test system: binge drinking of sweetened alcohol; conditions: Ji et al. 2007, in review; cited from earlier work
[2] = test system: defensive burying model of active anxiety-like behavior; experiment: Defensive burying test (Study 1); type: in vivo, rat
From the text: The defensive burying test was used to assess effects of MPZP on anxiety-like behavior [Treit et al., Pharmacol. Biochem. Behay. (1981) 15:619-626; De Boer et al., Eur. J. Pharmacol. (2003) 463:145-161]. This model has been validated by anxiolytic and anxiogenic compounds, which decrease and increase defensive burying behavior, respectively [Korte et al., Physiol. Behay. (1994) 56:115-120; De Boer et al., Eur. J. Pharmacol. (2003) 463:145-161]. For two consecutive days before defensive burying testing, animals were acclimated to the testing apparatus by placing them for 45 minutes in the testing cage (a polycarbonate rat housing cage with 2 cm of bedding covering the floor and a small hole centered on a long dimension of the cage 1 inch above the bedding to accommodate the shock probe on the subsequent test day). On the day of testing, animals were brought into the anteroom at least 2 hours before testing began. Subjects were subcutaneously pretreated with MPZP (0, 5, 20 mg/kg) in a between-subjects design 1 hour before their test session. For testing, animals were placed individually in the test cage, and a shock probe connected to a Coulbourn precision shocker (model E13-01, Coulbourn Instruments, Allentown, Pa.) delivered one 1.5 mA shock (lasting <1 s) upon contact. As soon as the animal was shocked (verified by a startle response), the shock current was deactivated, and the 10 minute test began. Contact with the shock probe under these conditions results in the rat displacing bedding material with treading-like movements of the forepaws and shoveling movements of the head, often directed toward the shock probe. Latency to the first display of burying behavior and time spent burying (in four 2.5 minute bins throughout the 10 minute test) were assessed [Korte et al., Physiol. Behay. (1994) 56:115-120]. […] The effect of MPZP on defensive burying behavior (latency to first bury and burying time) were analyzed by analysis of variance (ANOVA), in which Dose was a between-subjects factor and Time bin was a repeated measure for duration of burying.

COCCN(CCOC)c1cc(C)nc2c(-c3ccc(OC)cc3C)c(C)nn12 [MPZP, N,N-bis(2-methoxyethyl)-3-(4-methoxy-2-methylphenyl)-2,5-dimethyl-pyrazolo[1,5-a]pyrimidin-7-amine]
nondependent binge drinking of sweetened alcohol [1]: had no effect
total duration of defensive burying behavior ([2]; 0, 5, 20 mg/kg s.c., systemic pretreatment): dose-dependently reduced; also recorded: reduced defensive burying time
duration of burying across the 10-minute observation period ([2]; 20 mg/kg s.c., 1 hour before test, vs vehicle): significantly reduced
latency to start burying ([2]; 5 and 20 mg/kg s.c., 1 hour before test, vs vehicle): increased the latency to start burying
